Assay results published in patent publication US10844091B2 (priority 2017, dated 2020).

Legend:
Format in all cases: in vivo
[1] = tested on: rat models with Alzheimer's disease; assay: Extrapolation escape (EE) test, scopolamine-induced Alzheimer's disease model; details: 3 min test; scopolamine 1 mg/kg i.p. 27 days; donepezil 1 mg/kg i.p. 10 days, peptide (LYS) 0.1 mg/kg i.n. 10 days
Description: (§1) White random-bred adult male rats weighing 200-240 g were used. Groups of 7 animals per group were formed. 1st group—control, 2nd—pathology, 3rd—comparator drug, 4th-6th—neuropeptides.
(§2) Scopolamine was administered i.p. to the animals in all groups except for the control at a 1 mg/kg dose daily, once a day for 27 days. From the 28th day on, the animals in groups 2 and 3 were administered the comparator drug and the claimed preparation respectively over the course of 10 days. The drugs were administered daily, once a day.
(§3) The tetrapeptides were administered i.n at a 0.1 mg/kg dose. The animals in the pathology group received 0.9% sodium chloride solution i.n. and i.p. as a placebo.
(§4) The OF and EE tests were conducted on the 1st day, PST—on the 2nd day, CPAR—on the 1st and 10th day post treatment with the preparations. […] The antiamnesic action (AA) in the CPAR test was calculated using Butler's formula [K. S. Radionova. […] After that, the animals were removed from the experiment by administering a narcotic, followed by decapitation. The brain was extracted and weighed, and the brain weight coefficient (BWC) was calculated. Immediately after extraction, the brain was frozen in liquid nitrogen and used in subsequent biochemical and histochemical studies. Glucose levels in whole arterial (common carotid artery) and venous (venous cerebral sinus) blood were determined by the glucose oxidase test, the difference in the arterial-venous glucose content was calculated (glucose consumption marker). The levels of average weight molecules—the toxic products of cell biodegradation damaged during the disease (nucleoside derivatives, peptoids, glucuronic acid salts, etc.) in the blood serum (AWM) were calculated [A. N. Kovalevsky. Notes on the screening method of determination average weight molecules/A. N. Kovalevsky, O. Ye. Nifantiev//Lab. Science. […] 35-39].

[2] = tested on: rat models with Alzheimer's disease; assay: Conditioned passive avoidance reflex (CPAR) test, scopolamine-induced Alzheimer's disease model; details: for AA less than in the tetrapeptide (LYS) group: donepezil 1 mg/kg; for number of animals who reached the CPAR learning criterium: % of total trained animals, criterium at least 180 sec in light area
Description: as §1, §2, §3, §4

[3] = tested on: rat models with AD; assay: Porsolt swim test (PST), scopolamine-induced Alzheimer's disease model; details: AD rats; donepezil 1 mg/kg i.p., tetrapeptide (LYS) 0.1 mg/kg i.n.
Description: as §1, §2, §3, §4

COc1cc2c(cc1OC)C(=O)C(CC1CCN(Cc3ccccc3)CC1)C2 (centres unmarked) [donepezil, reference compound]
% of animals succeeded [1]: 100%
Escape time [1]: 18.86 ± 3.57 s
AA less than in the tetrapeptide (LYS) group ([2]; 10th day): 1.9 times
Latent period of entry into the dark area of the CPAR device, In 24 hrs. ([2]; In 24 hrs., scopolamine + donepezil 1 mg/kg or tetrapeptide (LYS) 0.1 mg/kg i.n.): 93.29 ± 26.11 s
Latent period of entry into the dark area of the CPAR device, In 10 days ([2]; In 10 days, scopolamine + donepezil 1 mg/kg or tetrapeptide (LYS) 0.1 mg/kg i.n.): 69.43 ± 11.10^ sec.
Latent period of entry into the dark area of the CPAR device, Initial ([2]; Initial, scopolamine + donepezil 1 mg/kg or tetrapeptide (LYS) 0.1 mg/kg i.n.): 24.00 ± 6.23 s
number of animals who reached the CPAR learning criterium ([2]; first day): 28.6%
AA less than in the tetrapeptide (LYS) group ([2]; first day): 2.9 times
number of animals who reached the CPAR learning criterium ([2]; tenth day): goes down to the level of the pathology group
Latent period of immobilization [3]: 69.43 ± 12.64 s
Number of immobilization acts [3]: 9.29 ± 1.66
